According to US9388179B2, “N-substituted indazole sulfonamide compounds with selective activity in voltage-gated sodium channels” (Merck Sharp & Dohme Corp., priority 2012, dated 2016):

Key:
Type in all cases: cell-based
[1] = molecular target: T1, human Nav1.7 channels stably expressed in HEK 293 cells (Homo sapiens, UniProt Q15858); experiment: IonWorks Quattro automated patch-clamp, inactivated state block; conditions: IonWorks technique; read-out: Nav 1.7 potency
T1 construct: expressed in transfected cells; host or cells: HEK 293
T1 sequence (Q15858 whole entry): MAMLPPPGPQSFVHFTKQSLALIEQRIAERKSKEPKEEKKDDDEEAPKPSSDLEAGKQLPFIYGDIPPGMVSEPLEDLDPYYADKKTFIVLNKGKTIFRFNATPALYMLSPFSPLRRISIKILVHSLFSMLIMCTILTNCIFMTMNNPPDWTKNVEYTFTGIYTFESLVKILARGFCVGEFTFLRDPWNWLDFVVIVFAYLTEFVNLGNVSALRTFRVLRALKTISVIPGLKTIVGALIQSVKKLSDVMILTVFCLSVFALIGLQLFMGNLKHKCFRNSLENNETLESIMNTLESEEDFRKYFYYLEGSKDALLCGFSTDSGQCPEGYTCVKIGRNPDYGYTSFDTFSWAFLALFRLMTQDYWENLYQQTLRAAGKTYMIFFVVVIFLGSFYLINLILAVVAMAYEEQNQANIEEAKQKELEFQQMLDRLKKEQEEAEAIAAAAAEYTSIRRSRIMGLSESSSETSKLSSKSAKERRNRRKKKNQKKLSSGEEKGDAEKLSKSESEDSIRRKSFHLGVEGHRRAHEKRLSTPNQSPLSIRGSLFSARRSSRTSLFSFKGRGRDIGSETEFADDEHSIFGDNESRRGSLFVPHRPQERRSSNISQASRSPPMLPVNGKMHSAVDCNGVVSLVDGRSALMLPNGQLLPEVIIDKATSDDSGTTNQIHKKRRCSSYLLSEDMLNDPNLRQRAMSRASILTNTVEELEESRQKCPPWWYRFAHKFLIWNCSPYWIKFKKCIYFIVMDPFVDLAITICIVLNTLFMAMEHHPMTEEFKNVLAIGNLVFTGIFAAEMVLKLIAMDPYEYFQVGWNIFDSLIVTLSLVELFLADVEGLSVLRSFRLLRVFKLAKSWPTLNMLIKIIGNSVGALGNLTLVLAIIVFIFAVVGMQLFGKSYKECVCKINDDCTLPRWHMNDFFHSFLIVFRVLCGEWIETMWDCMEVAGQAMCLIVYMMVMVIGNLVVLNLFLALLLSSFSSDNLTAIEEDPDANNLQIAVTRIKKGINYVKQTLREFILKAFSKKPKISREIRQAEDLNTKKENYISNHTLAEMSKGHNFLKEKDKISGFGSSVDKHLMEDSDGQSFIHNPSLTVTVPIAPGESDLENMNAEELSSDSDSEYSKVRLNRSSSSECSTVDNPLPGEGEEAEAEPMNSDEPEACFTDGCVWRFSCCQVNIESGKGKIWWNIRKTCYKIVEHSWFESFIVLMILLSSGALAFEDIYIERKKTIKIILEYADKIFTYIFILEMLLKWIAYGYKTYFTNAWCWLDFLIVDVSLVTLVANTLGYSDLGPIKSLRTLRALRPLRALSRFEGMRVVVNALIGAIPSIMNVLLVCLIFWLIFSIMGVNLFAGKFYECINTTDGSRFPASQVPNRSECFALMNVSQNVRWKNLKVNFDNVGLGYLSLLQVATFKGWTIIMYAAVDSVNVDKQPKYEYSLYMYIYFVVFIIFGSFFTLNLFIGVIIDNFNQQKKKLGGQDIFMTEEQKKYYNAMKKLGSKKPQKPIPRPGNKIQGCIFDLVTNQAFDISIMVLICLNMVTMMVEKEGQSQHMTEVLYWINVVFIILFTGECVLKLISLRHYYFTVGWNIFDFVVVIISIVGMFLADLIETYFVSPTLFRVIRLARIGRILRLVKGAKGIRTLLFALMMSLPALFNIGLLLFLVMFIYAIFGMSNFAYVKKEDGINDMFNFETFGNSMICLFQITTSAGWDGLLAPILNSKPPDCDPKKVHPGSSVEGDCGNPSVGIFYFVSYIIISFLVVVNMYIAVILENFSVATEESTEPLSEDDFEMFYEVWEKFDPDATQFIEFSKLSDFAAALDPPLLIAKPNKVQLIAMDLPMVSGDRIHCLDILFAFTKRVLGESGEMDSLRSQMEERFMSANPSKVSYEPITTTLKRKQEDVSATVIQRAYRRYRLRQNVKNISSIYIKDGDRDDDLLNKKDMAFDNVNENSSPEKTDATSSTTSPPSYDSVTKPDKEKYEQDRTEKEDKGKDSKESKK
Experimental: (§1) For all electrophysiology experiments, offline analysis was used to correct for current rundown and to determine percent inhibition as a function of drug concentration. IC50 values were determined by fitting to the Hill equation.
(§2) Cell Based Assays for Nav 1.7 and Nav 1.5 Activity
(§3) Compounds were tested on human Nav1.7 and Nav1.5 channels stably expressed in HEK 293 cells. […] Cells were sealed on a planar substrate using the Population Patch […] (PPC) technology. Electrical access was obtained using both nystatin and amphotericin. A double-pulse protocol was used for the determination of IC50 values for inactivated state block. Nav1.7 and Nav1.5 expressing cells were voltage clamped at −100 mV and −110 mV, respectively. A depolarizing prepulse to −10 mV (Nav1.7) or −30 mV (Nav1.5) for 1000 ms followed by a 10 ms repolarization to −100 mV (Nav1.7) or −110 mV (Nav1.5) was given to generate fractional channel inactivation of 50%, followed by a 10 ms test pulse to −10 mV (Nav1.7) or −30 mV (Nav1.5) to measure peak current in control conditions and after compound addition. The following recording solutions were used (mM). External: 150 NaCl, 2 CaCl2, 5 KCl, 1 MgCl2, 10 HEPES, 12 Dextrose; internal: 120 CsF, 30 CsCl, 10 EGTA, 5 HEPES, 5 NaF, 2 MgCl2.

[2] = molecular target: T2, human Nav1.5 channels stably expressed in HEK 293 cells (Homo sapiens, UniProt Q14524); experiment: as above; conditions: IonWorks technique
T2 construct: expressed in transfected cells; host or cells: HEK 293
T2 sequence (Q14524 whole entry): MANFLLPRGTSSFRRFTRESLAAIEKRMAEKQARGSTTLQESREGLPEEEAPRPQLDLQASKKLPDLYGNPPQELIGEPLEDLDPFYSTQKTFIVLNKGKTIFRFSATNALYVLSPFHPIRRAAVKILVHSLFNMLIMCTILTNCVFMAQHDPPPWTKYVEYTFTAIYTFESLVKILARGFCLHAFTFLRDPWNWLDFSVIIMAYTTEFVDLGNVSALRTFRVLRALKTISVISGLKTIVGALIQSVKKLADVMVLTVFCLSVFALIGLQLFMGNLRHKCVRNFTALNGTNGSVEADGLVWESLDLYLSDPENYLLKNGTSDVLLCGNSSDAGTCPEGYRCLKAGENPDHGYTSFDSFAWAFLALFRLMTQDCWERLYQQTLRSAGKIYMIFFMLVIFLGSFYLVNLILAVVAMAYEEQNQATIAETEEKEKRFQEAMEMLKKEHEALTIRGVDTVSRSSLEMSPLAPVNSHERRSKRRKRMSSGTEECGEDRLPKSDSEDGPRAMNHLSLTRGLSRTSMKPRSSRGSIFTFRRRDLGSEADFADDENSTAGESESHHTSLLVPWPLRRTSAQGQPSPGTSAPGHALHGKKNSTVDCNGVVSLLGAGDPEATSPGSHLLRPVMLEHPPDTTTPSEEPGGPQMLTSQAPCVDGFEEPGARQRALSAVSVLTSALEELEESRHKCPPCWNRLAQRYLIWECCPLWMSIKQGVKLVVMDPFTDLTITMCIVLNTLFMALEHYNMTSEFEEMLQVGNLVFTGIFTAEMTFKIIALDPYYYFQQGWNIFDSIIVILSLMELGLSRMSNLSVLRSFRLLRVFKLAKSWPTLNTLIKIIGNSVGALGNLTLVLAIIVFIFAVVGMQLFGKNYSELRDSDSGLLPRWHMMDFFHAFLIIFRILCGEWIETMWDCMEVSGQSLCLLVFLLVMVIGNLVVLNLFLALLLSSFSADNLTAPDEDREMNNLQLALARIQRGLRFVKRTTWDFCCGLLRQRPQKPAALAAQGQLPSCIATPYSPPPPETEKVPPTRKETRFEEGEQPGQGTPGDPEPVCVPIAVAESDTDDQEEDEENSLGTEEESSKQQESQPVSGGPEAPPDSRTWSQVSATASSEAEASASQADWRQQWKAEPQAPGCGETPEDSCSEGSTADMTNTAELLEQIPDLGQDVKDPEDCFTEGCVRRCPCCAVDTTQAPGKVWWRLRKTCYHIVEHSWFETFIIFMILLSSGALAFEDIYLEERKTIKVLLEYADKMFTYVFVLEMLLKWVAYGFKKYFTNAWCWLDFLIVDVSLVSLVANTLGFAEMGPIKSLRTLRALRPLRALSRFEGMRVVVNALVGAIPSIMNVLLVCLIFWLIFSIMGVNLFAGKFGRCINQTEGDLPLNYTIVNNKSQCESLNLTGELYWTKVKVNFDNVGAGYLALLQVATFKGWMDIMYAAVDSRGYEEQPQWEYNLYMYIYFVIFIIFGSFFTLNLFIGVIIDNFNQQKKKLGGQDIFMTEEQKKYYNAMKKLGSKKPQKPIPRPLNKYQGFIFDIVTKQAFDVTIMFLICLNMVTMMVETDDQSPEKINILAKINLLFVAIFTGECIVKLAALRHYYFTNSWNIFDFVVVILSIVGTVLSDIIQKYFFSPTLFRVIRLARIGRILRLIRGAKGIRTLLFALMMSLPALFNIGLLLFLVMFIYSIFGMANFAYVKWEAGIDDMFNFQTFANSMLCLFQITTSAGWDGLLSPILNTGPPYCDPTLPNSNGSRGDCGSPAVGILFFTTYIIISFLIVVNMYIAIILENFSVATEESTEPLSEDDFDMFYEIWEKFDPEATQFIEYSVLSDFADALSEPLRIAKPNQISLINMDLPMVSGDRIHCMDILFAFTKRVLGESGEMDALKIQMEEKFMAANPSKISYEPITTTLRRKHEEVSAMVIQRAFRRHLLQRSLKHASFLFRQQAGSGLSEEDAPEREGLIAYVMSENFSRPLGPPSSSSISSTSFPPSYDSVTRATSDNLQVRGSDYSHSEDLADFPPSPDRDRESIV
Experimental: as §1, §2, §3

[3] = molecular target: T1, human Nav1.7 channels stably expressed in HEK 293 cells; experiment: PatchXpress 7000 automated patch-clamp, inactivated state block; conditions: PatchXpress technique; read-out: Nav 1.7 potency
Experimental: as §1
(§4) Sodium Current Measurements on the PatchXpress 7000®:
(§5) To measure inactivated state block of sodium channels, test compounds were characterized in an automated PatchXpress® assay (Molecular Devices) using a double-pulse protocol on human Nav1.7 and Nav1.5 channels stably expressed in HEK 293 cells. Cells were held at a potential 20 mV negative to V0.5 inact. An 8000 ms pre-pulse 7 mV positive to V0.5 inact was given followed by a hyperpolarizing 2 ms pulse to −120 mV and a 20 ms test pulse to −20 mV. Protocol was applied to cells in the absence, presence of compound and after washout. The temperature of PatchXpress instruments was maintained at 22° C. The following recording solutions were used. Internal solution (mM): 30 CsCl, 5 HEPES, 10 EGTA, 120 CsF, 5 NaF, 2 MgCl2. External solution (mM): 120 NMDG, 40 NaCl, 1 KCl, 0.5 MgCl2, 5 HEPES, 2.7 CaCl2.

[4] = molecular target: T2, human Nav1.5 channels stably expressed in HEK 293 cells; experiment: as above; conditions: PatchXpress technique
Experimental: as §1, §4, §5

Row | SMILES | IC50 [1] | IC50 [3] | Ratio 1.5:1.7 = Nav 1.5 potency (nM)/Nav1.7 potency (nM) [2] | Ratio 1.5:1.7 = Nav 1.5 potency (nM)/Nav1.7 potency (nM) [4]
1 | NC1CCc2cccc(Cn3ncc4cc(S(=O)(=O)Nc5ncns5)c(F)cc43)c2C1 (single isomer, unassigned) [Ex-14, (S or R)-1-((7-amino-5,6,7,8-tetrahydronaphthalen-1-yl)methyl)-6-fluoro-N-(1,2,4-thiadiazol-5-yl)-1H-indazole-5-sulfonamide] | 24 nM | 21 nM | 1394 | 1480
2 | O=S(=O)(Nc1cccc(F)n1)c1cc2cnn(Cc3cccc4c3CNCC4)c2cc1F [Ex-4, 6-fluoro-N-(6-fluoropyridin-2-yl)-1-((1,2,3,4-tetrahydroisoquinolin-8-yl)methyl)-1H-indazole-5-sulfonamide] | 519 nM | 855 nM | 58 | 64
3 | O=S(=O)(Nc1ncns1)c1ccc2c(cnn2Cc2ccc(Cl)cc2C2=CCNCCC2)c1 [Ex-17, 1-[4-chloro-2-(2,5,6,7-tetrahydro-1H-azepin-4-yl)benzyl]-N-1,2,4-thiadiazol-5-yl-1H-indazole-5-sulfonamide] | 559 nM | 4470 nM | 59 | 7
4 | O=S(=O)(Nc1ncns1)c1ccc2c(cnn2Cc2ccccc2C2=CCNCCC2)c1 [Ex-23, 1-[2-(2,5,6,7-tetrahydro-1H-azepin-4-yl)benzyl]-N-1,2,4-thiadiazol-5-yl-1H-indazole-5-sulfonamide] | 1700 nM | 4470 nM | 19 | > 7
5 | O=S(=O)(Nc1ncns1)c1ccc2c(cnn2Cc2ccc(Cl)cc2C2=CCNCC2)c1 [Ex-18, 1-[4-chloro-2-(1,2,3,6-tetrahydropyridin-4-yl)benzyl]-N-1,2,4-thiadiazol-5-yl-1H-indazole-5-sulfonamide] | 781 nM | 5210 nM | 42 | 6
6 | C[C@H](c1ccccc1)n1ncc2cc(S(=O)(=O)Nc3ncns3)c(F)cc21 [Ex-9, 6-fluoro-1-[(1R)-1-phenylethyl]-N-1,2,4-thiadiazol-5-yl-1H-indazole-5-sulfonamide] | 1040 nM | 410 nM | 27 | 65
7 | NC1CCc2cccc(Cn3ncc4cc(S(=O)(=O)Nc5ncns5)c(F)cc43)c2C1 (single isomer, unassigned) [Ex-13, (R or S)-1-((7-amino-5,6,7,8-tetrahydronaphthalen-1-yl)methyl)-6-fluoro-N-(1,2,4-thiadiazol-5-yl)-1H-indazole-5-sulfonamide] | 6 nM | 7 nM | 5406 | 2275
8 | CN(C)CCNC(=O)c1cccc(-c2cc(Cl)ccc2Cn2ncc3cc(S(=O)(=O)Nc4ncns4)ccc32)c1 [Ex-20, 5′-chloro-N-[2-(dimethylamino)ethyl]-2′-{[5-(1,2,4-thiadiazol-5-ylsulfamoyl)-1H-indazol-1-yl]methyl}biphenyl-3-carboxamide] | 960 nM | – | 34 | –
9 | O=S(=O)(Nc1ncns1)c1ccc2c(cnn2Cc2ccc(Cl)cc2C2=CC3CCC(C2)N3)c1 (stereo not drawn) [Ex-21, 1-[2-(8-azabicyclo[3.2.1]oct-2-en-3-yl)-4-chlorobenzyl]-N-1,2,4-thiadiazol-5-yl-1H-indazole-5-sulfonamide] | 1260 nM | – | 26 | –
10 | O=S(=O)(Nc1ncns1)c1cc2cnn(Cc3ccccc3I)c2cc1F [Ex-7, 6-fluoro-1-(2-iodobenzyl)-N-1,2,4-thiadiazol-5-yl-1H-indazole-5-sulfonamide] | 340 nM | – | 19 | –
11 | C[C@H](c1ccccc1C1=CCNCC1)n1ncc2cc(S(=O)(=O)Nc3cccc(F)n3)c(F)cc21 [Ex-48, 6-fluoro-N-(6-fluoropyridin-2-yl)-1-{(1R)-1-[2-(1,2,3,6-tetrahydropyridin-4-yl)phenyl]ethyl}-1H-indazole-5-sulfonamide] | – | 1120 nM | – | 5
12 | C[C@H](c1cccc2c1CNCC2)n1ncc2cc(S(=O)(=O)Nc3nccs3)c(F)cc21 [Ex-28, 6-fluoro-1-[(1R)-1-(1,2,3,4-tetrahydroisoquinolin-8-yl)ethyl]-N-1,3-thiazol-2-yl-1H-indazole-5-sulfonamide] | – | 25 nM | – | 870
13 | NCCCc1ccccc1Cn1ncc2cc(S(=O)(=O)Nc3nccs3)c(F)cc21 [Ex-27, 1-[2-(3-aminopropyl)benzyl]-6-fluoro-N-1,3-thiazol-2-yl-1H-indazole-5-sulfonamide] | – | 5 nM | – | 48

Continued by falling IC50 [1], values first:

Row | IC50 [1] | IC50 [3] | SMILES | Ratio 1.5:1.7 = Nav 1.5 potency (nM)/Nav1.7 potency (nM) [2] | Ratio 1.5:1.7 = Nav 1.5 potency (nM)/Nav1.7 potency (nM) [4]
14 | 1720 nM | – | NC/C=C/c1ccccc1Cn1ncc2cc(S(=O)(=O)Nc3ncns3)cc(Cl)c21 [Ex-63, 1-{2-[(1E)-3-aminoprop-1-en-1-yl]benzyl}-7-chloro-N-1,2,4-thiadiazol-5-yl-1H-indazole-5-sulfonamide] | > 19 | –
15 | 1480 nM | 2900 nM | O=S(=O)(Nc1ncns1)c1ccc2c(cnn2Cc2ccc(Cl)cc2-c2cccc3c2CCNC3)c1 [Ex-25, 1-[4-chloro-2-(1,2,3,4-tetrahydroisoquinolin-5-yl)benzyl]-N-1,2,4-thiadiazol-5-yl-1H-indazole-5-sulfonamide] | 23 | 10
16 | 1080 nM | 782 nM | O=S(=O)(Nc1ncns1)c1cc2cnn(Cc3ccccc3-c3cccc4c3CCNC4)c2cc1F [Ex-10, 6-fluoro-1-[2-(1,2,3,4-tetrahydroisoquinolin-5-yl)benzyl]-N-1,2,4-thiadiazol-5-yl-1H-indazole-5-sulfonamide] | 30 | 38
17 | 936 nM | 495 nM | O=S(=O)(Nc1ncns1)c1cc2cnn(Cc3ccccc3)c2cc1F [Ex-12, 1-benzyl-6-fluoro-N-(1,2,4-thiadiazol-5-yl)-1H-indazole-5-sulfonamide] | 15 | 174
18 | 856 nM | 3030 nM | O=S(=O)(Nc1ncns1)c1ccc2c(cnn2Cc2ccccc2)c1 [Ex-19, 1-benzyl-N-1,2,4-thiadiazol-5-yl-1H-indazole-5-sulfonamide] | 39 | 6
19 | 777 nM | 833 nM | C[C@@H](c1cccc2c1CNCC2)n1ncc2cc(S(=O)(=O)Nc3ncns3)c(F)cc21 [Ex-64, (S)-6-fluoro-1-(1-(1,2,3,4-tetrahydroisoquinolin-8-yl)ethyl)-N-(1,2,4-thiadiazol-5-yl)-1H-indazole-5-sulfonamide] | 42 | 36
20 | 21 nM | 94 nM | C[C@H](c1cccc2c1CNCC2)n1ncc2cc(S(=O)(=O)Nc3ncns3)c(F)cc21 [Ex-6, (R)-6-fluoro-1-(1-(1,2,3,4-tetrahydroisoquinolin-8-yl)ethyl)-N-(1,2,4-thiadiazol-5-yl)-1H-indazole-5-sulfonamide] | 1066 | 320
